Reference: patent US20250295648A1 (priority 2024, published 2025)
Several values for one entry are separate records, joined by “and”; a condition that tells them apart may be missing. Equal values may be shown once.

Experiments:
[1] = system: PD patients with LID; assay: Parkinson's Disease Questionnaire (PDQ39); assay type: in vivo, human; conditions: for PDQ39, mean change from baseline: per-protocol set
Text: The PDQ39-item patient reported outcome of health status and quality of life and is the most frequently used disease-specific health status measure for PD. The questionnaire assesses how often people affected by PD experience difficulties across 8 dimensions of daily living. The standard PDQ39 assesses quality of life over the previous month. In this study the initial time period assessed at the Baseline Visit would be the previous month, with subsequent assessments for the intervening period since the last clinic visit (about 3 weeks). The 8 quality of life dimensions covered in the questionnaire are: • gg. Mobility (10 items #1-10) • hh. ADL (6 items #11-16) • ii. Emotional Well Being (6 items #17-22) • jj. Stigma (4 items #23-26) • kk. Social Support (3 items #27-29) • ll. Cognition (4 items #30-33) • mm. Communications (3 items #34-36) • nn. Bodily Discomfort (3 items #37-39) Individual items are rated by the patient on a scale of […]. Dimension scores are calculated on a scale of 0 to 100. The total score and individual dimension scores would be assessed for change from baseline.

[2] = system: Parkinson's disease symptoms in PD patients with LID; assay: Unified Parkinson's Disease Rating Scale (UPDRS); conditions: for UPDRS Part 3 score (motor disability), change from baseline: p=0.0072 vs baseline
Description: Patients were rated for dyskinesia at baseline and on days 28 (at end of up-titration period) and 42 (end of stable dosing period). Because the level of dyskinesia experienced by patients can vary over time, they were given 150% (i.e., 1.5×) of their regular L-DOPA dose (up to a maximum of 250 mg) as a challenge 30 min before each dyskinesia assessment to improve comparability between patients and between visits. Patients were filmed 30, 60 and 90 min after dosing with L-DOPA (˜5 min of filming each time). LID was assessed using the Unified Dyskinesia Rating Scale (UDysRS). Changes from baseline are shown for total score (i.e., Parts 1 to 4), for total objective score (i.e., Parts 3+4), and for the sum of Part 3 objective impairment assessment scores. Because objective LID assessment was carried out at 3 time-points (30, 60 and 90 min) following L-DOPA challenge, the above parameters were analyzed based on the most severe of the three scores as well as on the average score of the 3 time points. PD symptoms were assessed by Unified Parkinson's Disease Rating Scale (UPDRS) 30-90 min after the 150% L-DOPA challenge (i.e., when the patient was ON). Changes from baseline are shown for total score (i.e., Parts 1 to 4) and individual scores for each Part, 1, 2, 3 and 4.
The UPDRS consists of 4 parts: • v. Part I assesses non-motor experiences of daily living, such as cognitive impairment and depressed mood. • w. Part II assesses motor experiences of daily living, such as speech and eating tasks. • x. Part III is a motor examination conducted by the clinician, including assessments of symptoms such as rigidity and tremor. • y. Part IV is an assessment of motor complications, such as time spent with dyskinesia and functional impact of dyskinesias.
Each item in the UPDRS is scored from 0 to 4, and the individual scores are summed to give a total score that indicates the severity of the disease, with a score of 0 indicating no disability and a score of 199 being the most severe (indicating total disability).
Change from baseline in UPDRS combined scores (Parts I, II, III and IV) to Visit 6 (Day 28) and Visit 7 (Day 42) respectively would be summarized using descriptive statistics. […] The same analysis would be done for UPDRS Part III only.
The baseline value of the dependent variable has been included in the model as a continuous covariate. Kenward-Roger's improved approximation for degrees of freedom (2009) has been used; ^b)=p-value for the difference between NLX-112 at the assessment timepoint and at baseline; ^c)=p-value for the difference between placebo at the assessment timepoint and at baseline; ^d)=p-value for the difference between NLX-112 and placebo absolute change from baseline at the assessment timepoint.

[3] = system: PD patients with LID; assay: ICIQ Overactive Bladder Module (ICIQ-OAB); assay type: in vivo, human; conditions: for ICIQ-OAB, mean change from baseline: per-protocol set
Text: The ICIQ-OAB provides a brief and robust measure to assess the impact of symptoms of overactive bladder on quality of life and outcome of treatment. It is a 4-item patient reported outcome covering 4 domains of bladder function: frequency, nocturia, urgency, and urge urinary incontinence. Each item is scored by frequency of 0-4, for a total score of 0-16. Ratings would be based on the previous month or since the last clinic visit. Efficacy would be assessed as change from the baseline total score.

[4] = per-protocol set (n = 15), Baseline
[5] = 5 patients co-treated with amantadine
[6] = Full analysis set, Visit 2 Baseline
[7] = Full analysis set, Visit 6 Clinic Efficacy Visit
[8] = Full analysis set, Visit 7 Clinic Efficacy Visit
[9] = Full analysis set, Visit 9 Follow-up Clinic Visit
[10] = Visit 2 Baseline, per protocol analysis set, N = 15
[11] = Visit 6 Clinic Efficacy Visit (Day 28), per protocol analysis set, N = 15
[12] = Visit 7 Clinic Efficacy Visit (Day 42), per protocol analysis set, N = 15
[13] = Visit 9 Follow-up Clinic Visit, per protocol analysis set, N = 15
[14] = individual patients A-E co-treated with amantadine
[15] = per-protocol set, Δ D 28 (end of up-titration), p < 0.05 vs baseline
[16] = per-protocol set, Δ D 42 (end of stable dosing)
[17] = per-protocol set, Δ D 42 (end of stable dosing), p < 0.01 vs baseline

## Cc1ccc(CNCC2(F)CCN(C(=O)c3ccc(F)c(Cl)c3)CC2)nc1 [NLX-112, (3-chloro-4-fluoro-phenyl)-[4-fluoro-4-{[(5-methyl-pyridin-2-ylmethyl)-amino]-methyl}piperidin-1-yl]methanone]
[1]; Days 28 or 42
  quality of life (PDQ39 score): no consistent statistically significant effect
[1]; [4]
  PDQ39, mean: 18.7
[1]; Δ D 28 (end of up-titration)
  PDQ39, mean change from baseline: −1.5
[1]; Δ D 42 (end of stable dosing)
  PDQ39, mean change from baseline: −0.6
[2]; [5]
  UPDRS Part 3, mean change from baseline: −4.2
  UPDRS Total, mean change from baseline: −6.6
[2]; Day 28
  UPDRS Part 2 (motor experiences of daily living), vs baseline: statistically significant reduction
[2]; Day 28, PPS, p=0.0005 vs baseline
  UPDRS total score (Parts 1-4), change from baseline: −6.5 points
[2]; Day 28, PPS
  UPDRS Part 3 score (motor disability), change from baseline: −3.7 points
[2]; Day 42, PPS, p=0.0021 vs baseline
  UPDRS total score (Parts 1-4), change from baseline: −5.7 points
[2]; Day 42, PPS
  UPDRS Part 3 score (motor disability), change from baseline: −3.7 points
[2]; Days 28 or 42
  UPDRS total score absolute change from baseline, NLX-112 vs placebo: no significant differences
[2]; [6]
  UPDRS Part 3 Motor Total, collected value, mean: 17.8
  UPDRS Part 3 Motor Total, collected value, median: 16.0
  UPDRS Total Score (all Parts), collected value, Mean: 38.3
  UPDRS Total Score (all Parts), collected value, Median: 37.5
[2]; [7]
  UPDRS Part 3 Motor Total, absolute change from baseline, mean: −3.7
  UPDRS Part 3 Motor Total, absolute change from baseline, median: −4.0
  UPDRS Part 3 Motor Total, collected value, mean: 13.9
  UPDRS Part 3 Motor Total, collected value, median: 14.0
  UPDRS Part 3 Motor Total, relative change from baseline (%), mean: −21.8%
  UPDRS Part 3 Motor Total, relative change from baseline (%), median: −21.4%
  UPDRS Total Score (all Parts), absolute change from baseline, Mean: −6.5
  UPDRS Total Score (all Parts), absolute change from baseline, Median: −5.0
  UPDRS Total Score (all Parts), collected value, Mean: 30.5
  UPDRS Total Score (all Parts), collected value, Median: 29.0
  UPDRS Total Score (all Parts), relative change from baseline (%), Mean: −17.4%
  UPDRS Total Score (all Parts), relative change from baseline (%), Median: −15.2%
[2]; [8]
  UPDRS Part 3 Motor Total, absolute change from baseline, mean: −3.7
  UPDRS Part 3 Motor Total, absolute change from baseline, median: −4.0
  UPDRS Part 3 Motor Total, collected value, mean: 13.9
  UPDRS Part 3 Motor Total, collected value, median: 14.0
  UPDRS Part 3 Motor Total, relative change from baseline (%), mean: −21.5%
  UPDRS Part 3 Motor Total, relative change from baseline (%), median: −33.3%
  UPDRS Total Score (all Parts), absolute change from baseline, Mean: −5.7
  UPDRS Total Score (all Parts), absolute change from baseline, Median: −5.0
  UPDRS Total Score (all Parts), collected value, Mean: 31.3
  UPDRS Total Score (all Parts), collected value, Median: 30.0
  UPDRS Total Score (all Parts), relative change from baseline (%), Mean: −15.7%
  UPDRS Total Score (all Parts), relative change from baseline (%), Median: −19.2%
[2]; [9]
  UPDRS Part 3 Motor Total, absolute change from baseline, mean: −2.7
  UPDRS Part 3 Motor Total, absolute change from baseline, median: −2.0
  UPDRS Part 3 Motor Total, collected value, mean: 14.8
  UPDRS Part 3 Motor Total, collected value, median: 13.0
  UPDRS Part 3 Motor Total, relative change from baseline (%), mean: −11.2%
  UPDRS Part 3 Motor Total, relative change from baseline (%), median: −14.3%
  UPDRS Total Score (all Parts), absolute change from baseline, Mean: −4.4
  UPDRS Total Score (all Parts), absolute change from baseline, Median: −3.0
  UPDRS Total Score (all Parts), collected value, Mean: 32.6
  UPDRS Total Score (all Parts), collected value, Median: 31.0
  UPDRS Total Score (all Parts), relative change from baseline (%), Mean: −9.57%
  UPDRS Total Score (all Parts), relative change from baseline (%), Median: −11.5%
[2]; [10]
  UPDRS Part 3 Motor Total, collected value, mean: 17.5
  UPDRS Part 3 Motor Total, collected value, median: 17.0
  UPDRS Total Score, collected value, mean: 37.0
  UPDRS Total Score, collected value, median: 36.0
[2]; [11]
  UPDRS Part 3 Motor Total, absolute change from baseline, mean: −3.7
  UPDRS Part 3 Motor Total, absolute change from baseline, median: −4.0
  UPDRS Part 3 Motor Total, collected value, mean: 13.9
  UPDRS Part 3 Motor Total, collected value, median: 14.0
  UPDRS Part 3 Motor Total, relative change from baseline (%), mean: −21.8%
  UPDRS Part 3 Motor Total, relative change from baseline (%), median: −21.4%
  UPDRS Total Score, absolute change from baseline, mean: −6.5
  UPDRS Total Score, absolute change from baseline, median: −5.0
  UPDRS Total Score, collected value, mean: 30.5
  UPDRS Total Score, collected value, median: 29.0
  UPDRS Total Score, relative change from baseline (%), mean: −17.4%
  UPDRS Total Score, relative change from baseline (%), median: −15.2%
[2]; [12]
  UPDRS Part 3 Motor Total, absolute change from baseline, mean: −3.7
  UPDRS Part 3 Motor Total, absolute change from baseline, median: −4.0
  UPDRS Part 3 Motor Total, collected value, mean: 13.9
  UPDRS Part 3 Motor Total, collected value, median: 14.0
  UPDRS Part 3 Motor Total, relative change from baseline (%), mean: −21.5%
  UPDRS Part 3 Motor Total, relative change from baseline (%), median: −33.3%
  UPDRS Total Score, absolute change from baseline, mean: −5.7
  UPDRS Total Score, absolute change from baseline, median: −5.0
  UPDRS Total Score, collected value, mean: 31.3
  UPDRS Total Score, collected value, median: 30.0
  UPDRS Total Score, relative change from baseline (%), mean: −15.7%
  UPDRS Total Score, relative change from baseline (%), median: −19.2%
[2]; [13]
  UPDRS Part 3 Motor Total, absolute change from baseline, mean: −2.7
  UPDRS Part 3 Motor Total, absolute change from baseline, median: −2.0
  UPDRS Part 3 Motor Total, collected value, mean: 14.8
  UPDRS Part 3 Motor Total, collected value, median: 13.0
  UPDRS Part 3 Motor Total, relative change from baseline (%), mean: −11.2%
  UPDRS Part 3 Motor Total, relative change from baseline (%), median: −14.3%
  UPDRS Total Score, absolute change from baseline, mean: −4.4
  UPDRS Total Score, absolute change from baseline, median: −3.0
  UPDRS Total Score, collected value, mean: 32.6
  UPDRS Total Score, collected value, median: 31.0
  UPDRS Total Score, relative change from baseline (%), mean: −9.57%
  UPDRS Total Score, relative change from baseline (%), median: −11.5%
[2]; day 42
  reduction in UPDRS Part 3 score, more than placebo: 3.9 points
[2]; days 28 and 42
  UPDRS Part 1 (non-motor experiences of daily living), vs baseline: no statistically significant changes from baseline
  UPDRS Part IV (motor complications), vs baseline: significant reduction
[2]; [14]
  UPDRS Part 3, Δ from baseline: −9 and −13 and +3 and +2 and −4
  UPDRS Total, Δ from baseline: −15 and −11 and −5 (2×) and +3
[2]; of the 5 patients
  patients on NLX-112 and amantadine with numerical reductions in PD symptoms (UPDRS): 4
[2]; [4]
  UPDRS Part 1, mean: 1.0
  UPDRS Part 2, mean: 10.7
  UPDRS Part 3, mean: 17.5
  UPDRS Part 4, mean: 8.0
  UPDRS Total (Parts 1 to 4), mean: 37.0
[2]; per-protocol set, Δ D 28 (end of up-titration)
  UPDRS Part 1, mean change from baseline: 0.2
[2]; per-protocol set, Δ D 28 (end of up-titration), p < 0.001 vs baseline
  UPDRS Total (Parts 1 to 4), mean change from baseline: −6.5
[2]; per-protocol set, Δ D 28 (end of up-titration), p < 0.01 vs baseline, p < 0.05 vs placebo
  UPDRS Part 3, mean change from baseline: −3.7
[2]; [15]
  UPDRS Part 2, mean change from baseline: −2.1
  UPDRS Part 4, mean change from baseline: −0.9
[2]; [16]
  UPDRS Part 1, mean change from baseline: 0.1
  UPDRS Part 2, mean change from baseline: −1.2
[2]; [17]
  UPDRS Part 3, mean change from baseline: −3.7
  UPDRS Total (Parts 1 to 4), mean change from baseline: −5.7
[2]; per-protocol set, Δ D 42 (end of stable dosing), p < 0.05 vs baseline
  UPDRS Part 4, mean change from baseline: −0.9
[3]; Days 28 or 42
  incontinence (ICIQ-OAB): no consistent statistically significant effect
[3]; [4]
  ICIQ-OAB, mean: 18.3
[3]; Δ D 28 (end of up-titration)
  ICIQ-OAB, mean change from baseline: 0.7
[3]; Δ D 42 (end of stable dosing)
  ICIQ-OAB, mean change from baseline: −0.8
